Test results published in paper PMC6017107 (Molecules : A Journal of Synthetic Chemistry and Natural …, 2018).
“Also recorded” adds a separate entry of the source. Read-outs that look alike come from different tables or passages of the source.

Columns and labels:
KB-C2 cells = settings: substrate Vinblastine, ref [7]; cited from earlier work
Caco-2 cells = settings: ref [6]; cited from earlier work
P-gp [1] = settings: cited from earlier work; for IC50: Caco-2 cells
mice = settings: cited from earlier work
P-gp [2] = settings: ref [7], cited from earlier work; for Effects on the P-gp mediated transport in vitro: KB-C2; for Increase of accumulation of rhodamine 123: KB-C2 cells
in vivo = settings: for Increase of the Kp of doxorubicin in the kidney by pretreatment, comparing with control: 2 h after administration; for Increase of the Kp of doxorubicin in the liver by pretreatment: mice (matches 2 h values of Table 4)
Description: (§1) Male ICR mice (age: 5–6 weeks old; body weight: 30 ± 2 g) were purchased from Samtako Co. (Osan, Gyeonggi-do, Korea), housed in plastic cages and given free access to a standard animal diet (Daejong, Seoul, Korea) and water. The environment was maintained under the following conditions: temperature, 23 ± 1 °C; 12-h light-dark cycle; and relative humidity, 50% ± 10%. The animals were acclimatized for a minimum period of 1 week and fasted overnight prior to experimentation.
(§2) The mice were randomly divided into four groups. Each group was pretreated with either control vehicle (a mixture of DMSO:PEG 400:distilled water; 5:45:50, v/v), piperine (10 mg/kg), capsaicin (5 mg/kg), or [6]-gingerol (5 mg/kg). The treatment solutions of piperine, capsaicin and [6]-gingerol were prepared by the dissolution of each compound in the DMSO:PEG 400:distilled water mixture at concentrations of 2, 1 and 1 mg/mL, respectively. The treatment solutions were administered intraperitoneally twice with τ = 60 min for control vehicle and piperine and τ = 30 min for capsaicin and [6]-gingerol. […] The physiological conditions of the animals were carefully monitored during the study.
(§3) The volume of injected dosing vehicle was 5 mL/kg. […] Plasma was harvested by centrifugation at 16,000× g for 10 min and immediately stored at −20 °C until analysis. […] All excised tissues were accurately weighed and homogenized (Tissue Tearor, Biospec Products Inc., Bartlesville, OK, USA) with appropriate volumes of isotonic saline. The obtained tissue homogenates were stored at −20 °C until analysis.
(§4) Sample analyses were conducted on an Agilent 6430 triple quadrupole mass spectrometer coupled with an Agilent 1200 HPLC (Agilent, Santa Clara, CA, USA). […] Chromatographic separation was performed using a binary gradient mobile phase composed of acetonitrile (A) and 0.05% formic acid (B) and programmed as follows: initial conditions, 20% A (0.3 mL/min) for 0.1 min and 80% A for 3 min; increased to 90% A in 0.1 min and maintained for 1 min; returned to the initial composition; followed by a 3.2-min equilibration step (1.5 min for 0.3 mL/min and then 1.7 min for 0.5 mL/min). The ESI source was operated in positive mode with curtain and nebulizer gas set at 10 and 20 psi, respectively. The capillary voltage and gas temperature were 4000 V and 300 °C, respectively.
(§5) The IS working solution (20 μL of 100 ng/mL IS solution for plasma and 50 μL of 100 ng/mL IS solution for tissue samples) and acetonitrile (50 μL for plasma and 80 μL for tissue samples) were added to 20 μL of plasma and 50 μL of tissue samples and mixed on a vortex mixer for 1 min. The mixture was then centrifuged at 16,000× g (Biofuge Fresco, Kendro, Osterode, Germany) for 10 min. For tissue samples, 100 μL of the supernatant was re-precipitated with an equal volume of acetonitrile and centrifuged at 16,000× g for 10 min. Finally, 50 μL distilled water was added to 50 μL of each supernatant, followed by mixing and injection of 10 μL of the sample mixture onto the LC-MS/MS. Data acquisition was performed with MassHunter Quantitative Analysis (Agilent, Santa Clara, CA, USA).
(§6) The pharmacokinetic parameters were determined by non-compartmental analysis using Phoenix® WinNonlin® 6.4 (Certara, L.P., Princeton, NJ, USA). As the procedure entailed destructive sampling, the non-compartmental analysis was performed by using the average plasma concentration vs. time data. These parameters included terminal half-life (t1/2), area under the plasma concentration-time curve from time zero to infinity (AUCinf), apparent volume of distribution during the terminal phase (Vz), the volume of distribution at steady state (Vss) and systemic clearance (CL).

[3] = Plasma pharmacokinetics of phytochemicals after intraperitoneal injection
Description: as §1, §2, §3, §4, §5, §6

[4] = Plasma pharmacokinetics of doxorubicin i.v. in mice pretreated with phytochemical P-gp modulators; settings: male, ICR, mouse, in vivo, iv, 1 mg/kg, i.v. 1 mg/kg; for C0: C0 of doxorubicin; for clearance: CL of doxorubicin; for half-life: t1/2 of doxorubicin
Description: as §1, §2, §3, §4, §5, §6

[5] = cited from earlier work
[6] = test system: MCF-7/DOX, A-549/DDP cells; settings: ref [30], cited from earlier work
P-gp, MRP1 and BCRP = settings: ref [30], cited from earlier work
[7] = Tissue distribution of phytochemicals after intraperitoneal administration; settings: mouse, in vivo, ip
Description: as §1
The mice were randomly divided into four groups. Each group was pretreated with either control vehicle (a mixture of DMSO:PEG 400:distilled water; 5:45:50, v/v), piperine (10 mg/kg), capsaicin (5 mg/kg), or [6]-gingerol (5 mg/kg). […] The physiological conditions of the animals were carefully monitored during the study. […]
The IS working solution (20 μL of 100 ng/mL IS solution for plasma and 50 μL of 100 ng/mL IS solution for tissue samples) and acetonitrile (50 μL for plasma and 80 μL for tissue samples) were added to 20 μL of plasma and 50 μL of tissue samples and mixed on a vortex mixer for 1 min. […] Data acquisition was performed with MassHunter Quantitative Analysis (Agilent, Santa Clara, CA, USA).
The pharmacokinetic parameters were determined by non-compartmental analysis using Phoenix® WinNonlin® 6.4 (Certara, L.P., Princeton, NJ, USA). […]

ABC transporter genes = settings: MCF-7/DOX, A-549/DDP; ref [30]; cited from earlier work
[8] = male, ICR, mouse, in vivo, ip, 5 mg/kg
[9] = A-549/DDP, substrate Doxorubicin
[10] = male, ICR, mouse, in vivo, ip, 10 mg/kg

For `COc1cc(CNC(=O)CCCC/C=C/C(C)C)ccc1O` [Capsaicin], the “Effects on the P-gp mediated transport in vitro” value (KB-C2 cells) is listed as “Increased vinblastine cytotoxicity by inhibition of efflux transporter”, the Cytotoxicity (Caco-2 cells) is listed as “no resulting cytotoxicity” and the “Effects on the P-gp mediated transport in vitro” value (P-gp [1]; Caco-2, substrate [3H] Digoxin, ref [6]) is listed as “inhibited digoxin efflux mediated by P-gp; also recorded: Inhibited P-gp mediated efflux transport”. For the same compound, the LD50 (mice; i.p., mice, ref [57],[58]) was 7.6 mg/kg, the “Effects on the P-gp mediated transport in vitro” value (P-gp [2]; substrate Daunorubicin) was “Increased cellular accumulation” and the “Effects on the P-gp mediated transport in vitro” value (P-gp [2]; substrate Rhodamine 123) was “Inhibited efflux transport”. For the same compound, the “Increase of accumulation of rhodamine 123” value (P-gp [2]; 50 μmol/L capsaicin) was 4 fold, the “Increase of the Kp of doxorubicin in the brain by pretreatment” value (in vivo; brain, 2 h, mice) was 3.33 fold and the “Increase of the Kp of doxorubicin in the kidney by pretreatment, comparing with control” value (in vivo; mice) was 1.95 fold. For the same compound, the “Increase of the Kp of doxorubicin in the liver by pretreatment” value (in vivo) was 6.21 fold, the Detection in plasma ([3]; i.p. 5 mg/kg, mice, plasma) was “not detected 2–4 h after administration” and the AUC(0-inf) [3, 8] was 66.8 ng·h/mL. It also gave a CL/F [3, 8] of 1250 mL/min/kg, a Cmax [3, 8] of 119 ng/mL and a Tmax [3, 8] of 0.17 h. It also gave a Vd/F [3, 8] of 35.7 L/kg and a half-life [3, 8] of 0.33 h.

With `COc1cccc2c1C(=O)c1c(O)c3c(c(O)c1C2=O)C[C@@](O)(C(=O)CO)C[C@@H]3O[C@H]1C[C@H](N)[C@H](O)[C@H](C)O1` [Doxorubicin] the C0 ([4]; pretreatment Capsaicin) was 4430 ng/mL, the C0 ([4]; pretreatment Control) was 3980 ng/mL and the C0 ([4]; pretreatment Piperine) was 3400 ng/mL. It also gave a C0 ([4]; pretreatment [6]-Gingerol) of 4040 ng/mL, a clearance ([4]; pretreatment Capsaicin) of 25.2 mL/min/kg and a clearance ([4]; pretreatment Control) of 31 mL/min/kg. For the same compound, the clearance ([4]; pretreatment Piperine) was 25.6 mL/min/kg, the clearance ([4]; pretreatment [6]-Gingerol) was 28.8 mL/min/kg and the half-life ([4]; pretreatment Capsaicin) was 13.3 h. The half-life ([4]; pretreatment Control) was 17.4 h, the half-life ([4]; pretreatment Piperine) was 15.7 h and the half-life ([4]; pretreatment [6]-Gingerol) was 15.5 h. The “Injected doxorubicin excreted in bile” value ([5]; bile duct-cannulated rats, ref [45]) was 33–35%, the “Injected doxorubicin eliminated via urine” value ([5]; bladder-cannulated rats, ref [45]) was 4–8% and the “Initial dose appearing in the bile as unchanged doxorubicin” value ([5]; rats, within 3 h, ref [43]) was “approximately 30%”. The Kp (in vivo; male, ICR, mouse, in vivo, iv, 1 mg/kg, Doxorubicin Kp values) was > 35.4.

For `O=C(/C=C/C=C/c1ccc2c(c1)OCO2)N1CCCCC1` [Piperine], the “Effects on the P-gp mediated transport in vitro” value [6, 9] is given as “Increased cytotoxicity by reversing transporter mediated doxorubicin and mitoxantrone resistance”, the “Effects on the P-gp mediated transport in vitro” value ([6]; substrate Mitoxantrone) is given as “Increased cytotoxicity by reversing transporter mediated doxorubicin and mitoxantrone resistance” and the “Effects on the P-gp mediated transport in vitro” value (P-gp, MRP1 and BCRP; [9]) is given as “Inhibited efflux activity of P-gp, MRP1 and BCRP”. The “Effects on the P-gp mediated transport in vitro” value (P-gp, MRP1 and BCRP; MCF-7/DOX, substrates Rhodamine 123, Mitoxantrone) was “Inhibited efflux activity of P-gp, MRP1 and BCRP”, the Kp at 2 h ([7]; male, ICR, 10 mg/kg) was 1.69 ± 0.28 and the “Effects on the P-gp mediated transport in vitro” value (ABC transporter genes) was “Inhibited transcription of the corresponding ABC transporter genes”. For the same compound, the “Effects on the P-gp mediated transport in vitro” value (P-gp [1]; Caco-2, L-MDR1, substrate [3H] Digoxin, ref [5]) was “Inhibited P-gp mediated efflux transport”, the “Effects on the P-gp mediated transport in vitro” value (P-gp [1]; Caco-2, substrates Digoxin, Cyclosporin A, ref [4]) was “Inhibited P-gp mediated efflux transport” and the IC50 (P-gp [1]; cyclosporine A, ref [4], read-out: IC50, inhibition of transport of P-gp substrate cyclosporine A) was 74.1 µM. For the same compound, the IC50 (P-gp [1]; digoxin, ref [4], read-out: IC50, inhibition of transport of P-gp substrate digoxin) was 15.5 µM, the LD50 (mice; mouse, in vivo, ip) was 60 mg/kg and the “Increase of the Kp of doxorubicin in the kidney by pretreatment, comparing with control” value (in vivo; mice) was 2.23 fold. The “Increase of the Kp of doxorubicin in the liver by pretreatment” value (in vivo) was 5.44 fold, the AUC(0-inf) [3, 10] was 9960 ng·h/mL and the CL/F [3, 10] was 16.7 mL/min/kg. For the same compound, the Cmax [3, 10] was 5050 ng/mL, the Tmax [3, 10] was 0.75 h and the Vd/F [3, 10] was 9.12 L/kg. For the same compound, the half-life [3, 10] was 6.3 h.

For `CCCCC[C@H](O)CC(=O)CCc1ccc(O)c(OC)c1` [[6]-Gingerol], the “Effects on the P-gp mediated transport in vitro” value (KB-C2 cells) is listed as “Increased vinblastine cytotoxicity by inhibition of efflux transporter”, the “Detection in brain, heart and testis” value [7] is listed as “not detected” and the “Effects on the P-gp mediated transport in vitro” value (P-gp [1]; Caco-2, L-MDR1, substrate [3H] Digoxin, ref [8]) is listed as “Inhibited P-gp mediated efflux transport”. The “Effects on the P-gp mediated transport in vitro” value (P-gp [1]; Caco-2, L-MDR1, substrate [3H] Digoxin, ref [8], listed as [6]-gingerol) was “inhibited P-gp-mediated digoxin transport”, the LD50 (mice; mouse, in vivo, ip) was 58.1 mg/kg and the “Effects on the P-gp mediated transport in vitro” value (P-gp [2]; substrate Daunorubicin) was “Increased cellular accumulation”. The “Effects on the P-gp mediated transport in vitro” value (P-gp [2]; substrate Rhodamine 123) was “Inhibited efflux transport”, the “Increase of accumulation of rhodamine 123” value (P-gp [2]; in the presence of [6]-gingerol) was 2.24 fold and the AUC(0-inf) [3, 8] was 66.3 ng·h/mL. The CL/F [3, 8] was 1260 mL/min/kg, the Cmax [3, 8] was 153 ng/mL and the Detection in plasma [3, 8] was “not detected 2–4 h after administration”. For the same compound, the Tmax [3, 8] was 0.17 h, the Vd/F [3, 8] was 148 L/kg and the half-life [3, 8] was 1.36 h.
